How the values were obtained:
Yeast Cdc48 = Yeast Cdc48 (Saccharomyces cerevisiae, UniProt P25694); assay: In vitro ATP hydrolysis, yeast Cdc48; type: biochemical
Procedure: Compounds were tested for their ability to inhibit the ATPase activity of purified wild type murine p97 and T532C-Cdc48, a mutant of yeast Cdc48 in which the residue analogous to cysteine 522, threonine 532, was converted to cysteine.
(§1) To determine whether cysteine 522 is necessary for inhibition of p97 by compound 2, a mutant of p97 was constructed in which cysteine 522 was converted to either alanine (C522A-mp97) or threonine (C522T-mp97). The IC50 values of compound 2 were measured the against various enzymes during a 20-minute preincubation (see Table 2). Mutation of cysteine 522 in p97 to either alanine or threonine decreased sensitivity to compound 2 by greater than 100-fold. On the other hand, yeast Cdc48, which normally is quite resistant to compound 2, became nearly 30-fold more sensitive to the compound upon introduction of a cysteine in place of threonine 532.

CCRF-CEM = assay: MTT cell growth assay, CCRF-CEM; type: cell-based; conditions: Homo sapiens, 48 or 72 h, read-out: Cell line inhibition of growth GI50 CCRF-CEM
Procedure: (§2) To probe further the effect of compound 2 and related compounds 1, 3, 5, 6 and 7, various concentrations of these compounds were added to 13 different cell lines and incubated for 48 or 72 h. An MTT assay was then performed to evaluate cell growth and survival.

RL = assay: MTT cell growth assay, RL; type: cell-based; conditions: Homo sapiens, 48 or 72 h, read-out: Cell line inhibition of growth GI50 RL
Procedure: as §2

Human 19S ATPase = assay: In vitro ATP hydrolysis, 19S ATPase of the 26S proteasome; type: biochemical; conditions: 20-minute preincubation
Human 19S ATPase, sequence (P17980 whole entry): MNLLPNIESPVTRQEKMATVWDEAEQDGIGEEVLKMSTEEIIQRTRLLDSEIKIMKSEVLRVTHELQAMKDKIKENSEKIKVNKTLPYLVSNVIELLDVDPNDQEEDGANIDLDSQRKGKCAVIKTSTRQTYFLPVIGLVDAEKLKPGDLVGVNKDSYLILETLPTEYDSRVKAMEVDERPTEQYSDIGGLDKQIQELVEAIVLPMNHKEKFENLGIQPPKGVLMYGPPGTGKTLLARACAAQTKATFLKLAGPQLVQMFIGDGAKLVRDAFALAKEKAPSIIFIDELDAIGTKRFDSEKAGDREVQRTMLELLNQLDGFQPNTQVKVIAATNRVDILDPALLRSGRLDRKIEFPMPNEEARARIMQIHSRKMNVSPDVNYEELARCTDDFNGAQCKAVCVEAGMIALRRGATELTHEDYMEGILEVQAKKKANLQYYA
Human 19S ATPase, sequence (P62333 whole entry, further chain): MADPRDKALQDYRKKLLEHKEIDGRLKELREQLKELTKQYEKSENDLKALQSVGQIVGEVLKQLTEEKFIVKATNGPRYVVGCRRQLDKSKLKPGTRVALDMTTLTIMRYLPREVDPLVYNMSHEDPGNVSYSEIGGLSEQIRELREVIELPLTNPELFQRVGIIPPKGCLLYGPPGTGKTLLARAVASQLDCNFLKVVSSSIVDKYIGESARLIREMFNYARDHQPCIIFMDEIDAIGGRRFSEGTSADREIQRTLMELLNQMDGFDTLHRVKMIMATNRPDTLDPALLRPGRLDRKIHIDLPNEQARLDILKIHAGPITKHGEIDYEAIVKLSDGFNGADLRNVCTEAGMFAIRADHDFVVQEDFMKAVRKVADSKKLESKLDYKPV
Human 19S ATPase, sequence (P62195 2-406, further chain): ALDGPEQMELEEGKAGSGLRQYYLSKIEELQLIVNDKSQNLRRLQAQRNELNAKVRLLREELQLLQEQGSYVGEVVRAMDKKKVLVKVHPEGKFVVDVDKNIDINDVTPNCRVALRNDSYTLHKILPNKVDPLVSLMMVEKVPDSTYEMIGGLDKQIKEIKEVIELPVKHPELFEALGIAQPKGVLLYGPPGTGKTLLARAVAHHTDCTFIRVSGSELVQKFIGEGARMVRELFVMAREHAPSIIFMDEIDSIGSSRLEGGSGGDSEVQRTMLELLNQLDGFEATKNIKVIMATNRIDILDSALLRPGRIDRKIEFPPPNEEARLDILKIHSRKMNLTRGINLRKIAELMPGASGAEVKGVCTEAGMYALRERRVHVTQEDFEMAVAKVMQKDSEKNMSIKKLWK
Human 19S ATPase, sequence (P35998 2-433, further chain): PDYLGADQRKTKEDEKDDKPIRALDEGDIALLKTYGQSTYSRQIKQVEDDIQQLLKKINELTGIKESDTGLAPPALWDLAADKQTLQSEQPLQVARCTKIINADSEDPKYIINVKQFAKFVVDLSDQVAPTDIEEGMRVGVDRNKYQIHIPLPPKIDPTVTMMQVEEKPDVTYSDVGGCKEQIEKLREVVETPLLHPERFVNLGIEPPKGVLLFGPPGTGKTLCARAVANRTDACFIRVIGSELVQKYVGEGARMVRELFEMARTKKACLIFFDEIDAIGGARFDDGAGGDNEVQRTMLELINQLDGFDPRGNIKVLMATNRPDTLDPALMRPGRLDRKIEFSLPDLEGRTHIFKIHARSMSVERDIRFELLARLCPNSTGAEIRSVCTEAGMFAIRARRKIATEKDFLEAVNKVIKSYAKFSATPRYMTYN
Human 19S ATPase, sequence (P62191 2-440, further chain): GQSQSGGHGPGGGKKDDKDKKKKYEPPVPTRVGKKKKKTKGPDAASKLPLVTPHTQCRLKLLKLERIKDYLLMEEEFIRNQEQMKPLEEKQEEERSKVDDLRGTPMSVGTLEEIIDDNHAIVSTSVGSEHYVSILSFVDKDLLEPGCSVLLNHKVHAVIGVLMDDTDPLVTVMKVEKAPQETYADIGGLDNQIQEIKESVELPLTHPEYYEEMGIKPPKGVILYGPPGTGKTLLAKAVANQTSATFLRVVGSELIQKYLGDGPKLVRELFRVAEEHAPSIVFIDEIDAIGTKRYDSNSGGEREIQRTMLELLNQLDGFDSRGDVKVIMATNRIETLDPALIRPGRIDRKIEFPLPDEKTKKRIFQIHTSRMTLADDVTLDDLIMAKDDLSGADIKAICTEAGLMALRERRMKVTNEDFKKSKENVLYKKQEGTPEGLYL
Human 19S ATPase, sequence (P43686 whole entry, further chain): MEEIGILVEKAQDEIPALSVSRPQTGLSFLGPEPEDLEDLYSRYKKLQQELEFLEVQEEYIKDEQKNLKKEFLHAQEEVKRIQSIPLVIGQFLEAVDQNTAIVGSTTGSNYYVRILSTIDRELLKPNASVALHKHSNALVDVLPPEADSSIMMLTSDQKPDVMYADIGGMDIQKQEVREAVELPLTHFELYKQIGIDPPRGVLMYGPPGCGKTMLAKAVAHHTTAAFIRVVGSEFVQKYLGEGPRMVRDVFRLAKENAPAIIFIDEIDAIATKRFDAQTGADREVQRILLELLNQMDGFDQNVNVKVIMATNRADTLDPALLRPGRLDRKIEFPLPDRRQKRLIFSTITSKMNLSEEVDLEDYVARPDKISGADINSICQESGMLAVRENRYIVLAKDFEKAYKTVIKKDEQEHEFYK
Procedure: as §1
To further address the specificity of inhibition by compound 2, its activity against two other AAA ATPases, NSF and the 26S proteasome, was assayed. Although NSF is known to be sensitive to thiol-reactive agents, it was more than 100-fold less sensitive to compound 2 than p97 (Table 2). […] The results with NSF and the 26S proteasome are noteworthy because both the active D1 domain of NSF and the Rpt3 subunit of the 26S proteasome have a cysteine in the position analogous to cysteine 522 of p97 (FIG. 3).

MCF7 = assay: MTT cell growth assay, MCF7; type: cell-based; conditions: Homo sapiens, 48 or 72 h, read-out: Cell line inhibition of growth GI50 MCF7
Procedure: as §2

Yeast Cdc48, sequence (P25694 whole entry): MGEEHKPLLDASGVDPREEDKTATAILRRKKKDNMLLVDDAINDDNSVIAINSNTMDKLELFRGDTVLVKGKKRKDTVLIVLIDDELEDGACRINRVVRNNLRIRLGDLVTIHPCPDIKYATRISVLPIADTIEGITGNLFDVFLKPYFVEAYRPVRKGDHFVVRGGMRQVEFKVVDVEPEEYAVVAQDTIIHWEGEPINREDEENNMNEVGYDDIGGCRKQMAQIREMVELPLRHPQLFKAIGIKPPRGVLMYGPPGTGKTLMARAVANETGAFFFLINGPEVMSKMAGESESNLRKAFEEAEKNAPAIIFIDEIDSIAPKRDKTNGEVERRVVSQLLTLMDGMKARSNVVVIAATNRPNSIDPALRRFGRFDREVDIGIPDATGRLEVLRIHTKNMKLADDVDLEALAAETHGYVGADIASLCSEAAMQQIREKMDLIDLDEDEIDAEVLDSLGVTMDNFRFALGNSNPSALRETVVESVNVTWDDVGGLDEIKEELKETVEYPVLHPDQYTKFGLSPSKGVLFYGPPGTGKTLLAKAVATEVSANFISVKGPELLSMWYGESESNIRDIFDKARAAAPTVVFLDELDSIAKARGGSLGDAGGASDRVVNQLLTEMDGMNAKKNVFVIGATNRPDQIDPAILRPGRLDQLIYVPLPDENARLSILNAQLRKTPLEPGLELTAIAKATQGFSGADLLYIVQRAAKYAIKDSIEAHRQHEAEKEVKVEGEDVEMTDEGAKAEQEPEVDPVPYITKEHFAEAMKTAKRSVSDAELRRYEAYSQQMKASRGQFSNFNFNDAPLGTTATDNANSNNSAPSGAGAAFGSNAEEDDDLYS

For `C=CC(=O)Nc1ncnc2c1c(-c1ccccc1)nn2C(C)(C)C` [Compound 2], the IC50 (Yeast Cdc48) was 376000 ± 95000 nM, the GI50 (CCRF-CEM) was 1600 ± 800 nM and the GI50 (RL) was 2100 ± 1100 nM. For the same compound, the IC50 (Human 19S ATPase) was 75000 nM and the GI50 (MCF7) was 500 ± 100 nM.

From US9089572B2, “Inhibitors of p97” (California Institute of Technology, priority 2008, dated 2015)
